From article PMC9401600 (Chemmedchem, 2022)

Legend:
[1] = target: T1, EHMT1 (GLP) (Homo sapiens, UniProt Q9H9B1); experiment: EHMT1 (GLP) chemiluminescent assay; format: biochemical; details: 0.01 μM to 10 μM
T1 construct: purchased
T1 sequence (Q9H9B1 1-1298): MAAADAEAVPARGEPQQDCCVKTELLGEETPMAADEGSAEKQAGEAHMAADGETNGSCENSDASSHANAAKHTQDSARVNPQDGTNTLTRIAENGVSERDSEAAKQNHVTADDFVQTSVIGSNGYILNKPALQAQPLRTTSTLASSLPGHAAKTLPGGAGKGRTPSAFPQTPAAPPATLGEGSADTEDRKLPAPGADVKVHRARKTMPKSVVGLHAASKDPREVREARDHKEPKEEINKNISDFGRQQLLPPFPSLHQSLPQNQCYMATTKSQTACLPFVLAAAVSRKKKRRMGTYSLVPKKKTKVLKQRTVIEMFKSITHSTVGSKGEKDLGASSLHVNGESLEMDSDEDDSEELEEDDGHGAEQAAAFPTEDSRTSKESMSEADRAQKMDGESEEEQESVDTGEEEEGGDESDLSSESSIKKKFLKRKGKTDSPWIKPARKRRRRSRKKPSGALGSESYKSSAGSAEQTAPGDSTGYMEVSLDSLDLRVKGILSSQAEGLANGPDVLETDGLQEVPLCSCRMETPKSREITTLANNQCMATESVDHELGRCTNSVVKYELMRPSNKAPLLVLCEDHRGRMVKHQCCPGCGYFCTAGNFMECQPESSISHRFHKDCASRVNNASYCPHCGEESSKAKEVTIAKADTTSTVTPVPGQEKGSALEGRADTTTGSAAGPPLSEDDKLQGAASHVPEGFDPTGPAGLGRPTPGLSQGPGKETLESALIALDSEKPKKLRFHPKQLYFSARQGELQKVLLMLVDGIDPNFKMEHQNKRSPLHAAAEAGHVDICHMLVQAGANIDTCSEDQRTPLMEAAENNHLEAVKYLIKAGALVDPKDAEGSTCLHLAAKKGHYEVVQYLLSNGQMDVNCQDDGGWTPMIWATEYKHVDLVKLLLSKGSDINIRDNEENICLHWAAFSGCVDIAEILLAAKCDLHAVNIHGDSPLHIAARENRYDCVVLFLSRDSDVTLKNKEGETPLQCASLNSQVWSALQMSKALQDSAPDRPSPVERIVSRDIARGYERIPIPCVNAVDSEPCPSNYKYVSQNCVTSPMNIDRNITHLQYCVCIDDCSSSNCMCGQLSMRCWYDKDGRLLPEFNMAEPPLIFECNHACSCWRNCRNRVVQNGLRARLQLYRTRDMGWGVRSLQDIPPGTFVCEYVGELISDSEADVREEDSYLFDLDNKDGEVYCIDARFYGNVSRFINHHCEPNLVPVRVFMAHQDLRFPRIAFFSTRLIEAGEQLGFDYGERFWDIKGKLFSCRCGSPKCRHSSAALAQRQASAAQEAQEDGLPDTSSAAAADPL
Experimental: Last, but not least, further characterization of the best candidates was performed assessing their selectivity. Thus, we tested them against EHMT1 (G9a‐like protein, GLP). […] However, they presented a very low percentage, and furthermore this trend was not observed at high doses.
The assay was carried out using EHMT1 (GLP) Chemiluminescent Assay kit. Compounds were added on a 96‐well plate precoated with histone substrate supplied by kit. 30 μL of master mixture SAM were added and the reaction was initiated adding 20 μL of diluted EHMT1 (GLP) enzyme. The reaction was incubated at room temperature (RT) for 1 hour. The plate was washed three times with 200 μl TBST buffer. 100 μL of Blocking buffer were added to every well and the plate was incubated at RT for 10 minutes with shaking. Supernatant was removed and 100 μl of Primary antibody were added per well. The plate was incubated at RT for 1 hour with slow shaking. The plate was washed three times with 200 μl TBST buffer. 100 μL of Blocking buffer were added to every well and the plate was incubated at RT for 10 minutes with shaking. 100 μl of Secondary HRP‐labeled antibody were added per well and the plate was incubated at RT for 30 minutes with slow shaking. The plate was washed three times with 200 μl TBST buffer. Finally, 100 μl of substrate mix were added and the luminescence was measurement with integration time of 1 second in Perkin Elmer EnSpire Multimode plate reader.

[2] = tested on: C. elegans strain CL2006; experiment: Locomotion assay (motor index); format: in vivo, Caenorhabditis elegans; details: CL2006 worms, 0.001-1 μM, chronic treatment, compared with UNC0638
Experimental: One of the best‐characterized transgenic AD strains in C. elegans is the CL2006 strain, which contains the Punc‐54::Aβ1–42 transgene, showing a progressive adult‐onset paralysis. Then, to establish a dose‐response profile, the pharmacological impact of G9a inhibition was evaluated in a locomotion assay with this C. elegans strain. We performed a motility assay where animals were placed in the center of a seeded plate and allowed to explore the environment freely. […] N2 (WT), and CL2006 strain were treated with dimethyl sulfoxide (DMSO) 1 %, used as a vehicle, which should not cause a relevant locomotor defective phenotype. […] The motor index for each condition was calculated using the motor performance of Bristol (N2) (WT, 100 %) and the transgenic AD strain (CL2006, 0 %) animals as reference.
Locomotion assay of G9a inhibitors was assessed to obtain dose‐response profile, evaluating the impact of the pharmacology treatment in motor dysfunction presented by the transgenic strains CL2006. Nematodes were synchronized by alkaline hypochlorite treatment, and drug assay was performed as described above, except for the OP50 bacteria OD595 adjusted to 0.9, and the duration of the treatment was 5 days. N2 (WT), and the transgenic strain CL2006 were treated in liquid media for 4 days at 20 °C and 180 rpm, starting at the L1 stage. On day 5 of age, worms were transferred from the 96‐well plates onto an unseeded NGM plate for 45 minutes before starting the trial, allowing the plates to dry and worms. Locomotion assays were performed in 30 mm NGM plates, in which the whole surface of the plate was covered by OP50. 5 to 10 adult nematodes were placed in the center of a circle (with 1 cm of diameter) in the seeded 30 mm NGM plates. After 1 min, the number of animals remaining inside the circle was scored as a locomotor defect. Motor behavior assays were run in triplicates (n=3), with a total of at least 100 animals tested per compound concentration. Motor index establishes a score where treated animals showing the same motor defect as CL2006 have an index of 0 %. […] All the results shown in the figures are calculated using the following formula: Motorindex(%)=(LDCL2006vehicle-LDCL2006drug)/(LDCL2006vehicle-LDWTvehicle)×100 LD=locomotiondefective

**Q.** Which “activity against EHMT1 (in words)” value [1] does the source give for `Cc1cc(N2CCN(Cc3cc(CN4CCCC4)cs3)CC2)nc(N)n1` [E] here?
**A.** The value was “did not inhibit EHMT1”.

**Q.** And the “motor index dose‐response profile (in words)” value [2]?
**A.** Its value is “ameliorating the paralysis presented by CL2006”.

**Q.** For `CCN1C[C@H](NC(=O)c2cc3cc(Cl)ccc3[nH]2)[C@@H](OC)C1` [F, 5‐chloro‐N‐((3S,4S)‐1‐ethyl‐4‐methoxypyrrolidin‐3‐yl)‐1H‐indole‐2‐carboxamide], which “activity against EHMT1 (in words)” value [1] is on record?
**A.** The value was “slight activity against EHMT1 at low doses”.

**Q.** What about the “motor index dose‐response profile (in words)” value [2] of the same molecule?
**A.** Its value is “ameliorating the paralysis presented by CL2006”.

**Q.** For `Cc1cc(CNC(=O)C(c2ccc(F)cc2)N2CCCCC2)cnc1C` (stereo not drawn) [H], which “activity against EHMT1 (in words)” value [1] is on record?
**A.** Its value is “slight activity against EHMT1 at low doses”.

**Q.** What about the “motor index dose‐response profile (in words)” value [2] of the same molecule?
**A.** The value was “ameliorating the paralysis presented by CL2006”.
